This is an account of results in patent US6242600A, “2-piperazinone-1-acetic acid derivatives and their use” (Takeda Chemical Industries, Ltd., priority 1997, dated 2001).

What is called IC50 is the point on the concentration scale where inhibition reaches its midpoint.

This assay concerns platelet aggregation induced by ADP (platelet rich plasma). The experiment in a line: Inhibitory Effect on Platelet Aggregation in Guinea Pigs (induced by ADP). The class given is cell-based. Conditions: Cavia porcellus; guinea pig platelet rich plasma, about 400,000 platelets/μl, 37° C., ADP final concentration 1 μM, test drug added 2 minutes before ADP; read-out: Inhibition of platelet aggregation by ADP, IC50. How it is done: Blood was collected from abdominal aorta of male guinea pigs under anesthesia with pentobarbital (20 mg/kg, i.p.) using sodium citrate as an anticoagulant (final concentration: 0.315%). The sodium citrate-supplemented blood was centrifuged at 1000 g for […] to obtain platelet rich plasma (PRP), which was further centrifuged at 1000 g for 10 minutes respectively at room temperature to obtain platelet poor plasma (PPP). The number of platelet was counted at automatic platelet counter (Sysmex E2500, Toaiyo-denshi). PRP was diluted with PPP to adjust the number of platelets to be about 400,000/μl. Platelet aggregation was measured as follows, using an 8-channel aggregometer (NBS HEMA TRACER VI, Niko Bioscience Inc.): The PRP (250 μl) was incubated at 37° C. for 2 minutes, to n added 25 μl of a test drug solution. Two minutes later, 25 μl of an agent (ADP; finalconcentration: 1 μM) for causing agglutination. The effect of the test drug was shown by the inhibition rate of the maximum aggregation rate of the test group against that of the control group.
In the case of `COC(=O)C[C@H]1C(=O)N(CC(=O)O)CCN1C(=O)[C@H](Cc1ccc(OC)cc1)NC(=O)C1CCN(c2ccncc2)CC1` [compound 9], the IC50 worked out at 70 nM.

With `COC(=O)C[C@H]1C(=O)N(CC(=O)O)CCN1C(=O)[C@H](CC(=O)N1CCN(c2ccncc2)CC1)NCc1ccc(OC)cc1` [compound 36], the 50% inhibitory concentration (IC50) is 220 nM.

Regarding `COC(=O)C[C@H]1C(=O)N(CC(=O)O)CCN1C(=O)[C@@H](CC(=O)N1CCN(c2ccncc2)CC1)NC(=O)OCOC(=O)C(C)(C)C` [compound 43], the half-inhibitory concentration (IC50) is 99 nM.

For `COC(=O)C[C@H]1C(=O)N(CC(=O)OC)CCN1C(=O)CCC(=O)N1CCN(c2ncccn2)CC1` [compound 14], the IC50 was 75 nM.

For `COC(=O)C[C@H]1C(=O)N(CC(=O)O)CCN1C(=O)[C@@H](CC(=O)N1CCN(c2ccncc2)CC1)NS(=O)(=O)c1ccc(OC)cc1` [compound 31], the IC50 was found to be 60 nM.

Turning to `COC(=O)C[C@H]1C(=O)N(CC(=O)O)CCN1C(=O)[C@H](CC(=O)N1CCN(c2ccncc2)CC1)NC(=O)OC` [compound 24], the IC50 turned out to be 62 nM.

On to `COC(=O)C[C@H]1C(=O)N(CC(=O)O)CCN1C(=O)[C@H](CC(=O)N1CCN(c2ccncc2)CC1)NS(=O)(=O)c1ccc(OC)cc1` [compound 33], for which the IC50 is 240 nM.

`COC(=O)C[C@H]1C(=O)N(CC(=O)OC)CCN1C(=O)CCC(=O)N1CCN(c2ccccn2)CC1` [compound 12]: the IC50 is 38 nM.

Turning to `COC(=O)C[C@H]1C(=O)N(CC(=O)OC(C)(C)C)CCN1C(=O)[C@H](CC(=O)N1CCN(c2ccncc2)CC1)NC(=O)OC(C)(C)C` [compound 20], the IC50 turned out to be 44 nM.

For `CN[C@H](CC(=O)N1CCN(c2ccncc2)CC1)C(=O)N1CCN(CC(=O)O)C(=O)[C@@H]1CC(=O)OC` [compound 40], the 50% inhibitory concentration (IC50) came to 58 nM.
